Measured values: EP2647634A1, “Indole-pyrimidine derivatives and their therapeutic uses” (NOSCIRA, S.A., priority 2012, dated 2013)

Tests used:
Human recombinant GSK-3β = molecular target: T1, Human recombinant GSK-3β (Homo sapiens, UniProt P49841); experiment: GSK-3β assay (luminescent detection of ADP); assay type: biochemical; details: 4 nM enzyme, 5 µM ATP, 15 µM substrate peptide, 40 min incubation
T1 construct: purchased Millipore
Protocol: (§1) The enzymatic activity of Cdk5 is determined with a commercial system, available from Promega (Madison, WI, USA) based on the luminescent detection of ADP, the byproduct of the kinase reaction. Human recombinant Cdk5/p35 heterodimer (purchased from Life Technologies, Carlsbad, CA, USA) is used as the enzyme source. At the end of the enzymatic reaction the remaining ATP is destroyed and afterwards the ADP produced during the kinase reaction is converted into ATP, which is further converted into light using a suitable luciferase. Therefore, the luminescent signal positively correlates with kinase activity. The assay is performed in 96-well conical bottom black plates, in a final volume of 12 µl with 10 nM enzyme concentration in 40 mM Tris-HCl pH 7.4, 20 mM MgCl2 and 0.01% bovine serum albumin using 10 µM ATP and 2 µM substrate. […] The assay is carried out in the presence of different concentrations of the tested compound, at a final 1% (v/v) DMSO concentration. After a 40 min incubation, at room temperature, 12 µl of a commercial "ADP Glo" solution (from Promega) is added to remove the remaining ATP and a subsequent 40 min incubation at room temperature is performed before adding 24 µl of a suitable "detection reagent" (also supplied by Promega) needed to carry out the transformation of ADP into ATP and its conversion into light by the luciferase enzyme included in the reagent. After a final 30 min incubation at room temperature luminescence is monitored in a suitable plate reader. […] For that purpose the data were fitted to a version of the classical 4-parameters isotherm equation using the nonlinear regression function of GraphPad™ Prism 5.0 (GraphPad Software Inc.).
The enzymatic activity of GSK-3β is determined with the same commercial system described above based on the luminescent detection of ADP. Human recombinant GSK-3β (purchased from Millipore) is used as the enzyme source. […] The assay is carried out in the presence of different concentrations of the tested compound at a final 1% (v/v) DMSO concentration.

Human recombinant CK1ε = molecular target: T2, Human recombinant CK1ε (Homo sapiens, UniProt P49674); experiment: CK1ε assay (luminescent detection of ADP); assay type: biochemical; details: 10 nM enzyme, 50 µM ATP, 50 µM substrate peptide, 40 min incubation
T2 construct: purchased Life Technologies
Protocol: as §1
The enzymatic activity of CK1ε is determined with the same commercial system described above based on the luminescent detection of ADP. Human recombinant CK1ε (purchased from Life Technologies) is used as the enzyme source. The assay is performed in 96-well conical bottom black plates, in a final volume of 12 µl with 10 nM enzyme concentration in 40 mM Tris-HCl pH 7.4, 20 mM MgCl2 and 0.01% bovine serum albumin using 50 µM ATP and 50 µM substrate peptide. The latter is a synthetic peptide provided by AnaSpec (Fremont, CA, USA) under the commercial name "CK1 peptide substrate" and it is based on the sequence of rabbit muscle glycogen synthase with Ser7 phosphorylated (the exact sequence of the peptide is KRRRAL(pS)VASLPGL, where (pS) denotes phospho-Ser). The assay is carried out in the presence of different concentrations of the tested compound at a final 1% (v/v) DMSO concentration.

[1] = molecular target: T3, Human recombinant Cdk5/p35 heterodimer (Homo sapiens, UniProt Q00535); experiment: Cdk5 assay (luminescent detection of ADP, ADP Glo); assay type: biochemical; details: 10 nM enzyme, 10 µM ATP, 2 µM histone H1, 40 min incubation
T3 construct: purchased Life Technologies
Protocol: as §1

[2] = test system: phosphorylation at the Ser-396 residue of Tau protein in human neuroblastoma SH-SY5Y cells; experiment: Cellular assay: phosphorylation at Ser-396 of Tau protein (ELISA); assay type: cell-based; details: 16 h incubation with compound, read-out: pSer396-Tau 16h pEC50 average (converted)
Protocol: The effect of the compounds in cells is determined by monitoring the level of phosphorylation at the Ser-396 residue of Tau protein in human neuroblastoma SH-SY5Y cells. Cells are grown in 96-well plates, 30,000 cells per well in a volume of 100 µl of 1:1 MEM:Ham's F12 medium including 10% (v/v) fetal bovine serum, 100 U/ml penicillin, 100 µg/ml streptomycin and 1% (v/v) 100-fold concentrated commercial stock of non-essential aminoacids (Gibco, Carlsbad, CA, USA), and incubated at 37°C during 24 h. Then, the corresponding amount of test compound is added to the wells to reach the desired concentration in 1% (v/v) DMSO. The system is incubated at 37°C during 16 h and afterwards cells are harvested, washed with phosphate buffer saline and incubated during 30 min on ice with 120 µl per well of "lysis buffer" (10 mM Tris-HCl pH 7.4, 100 mM NaCl, 1 mM EDTA, 2 mM sodium orthovanadate, 1% (v/v) Triton X-100, 10% (v/v) glycerol, 0.1% (w/v) sodium dodecyl sulfate, 0.5 % (w/v) sodium deoxycholate, 4% (v/v) 25-fold concentrated commercial stock of protease inhibitors (Roche, Basel, Switzerland) and 1 mM phenylmethylsulfonyl fluoride). 60 µl of this mixture is then placed in an empty 96-well plate and the levels of Ser-396 phosphorylation are determined using a commercial ELISA kit (Biosource, Carlsbad, CA, USA) following manufacturer's instructions. The levels of phosphrylation are expressed as percentage values after normalizing them to those in untreated cells and those values are used to calculate the pEC50s as described above.

T3 sequence (Q00535 whole entry): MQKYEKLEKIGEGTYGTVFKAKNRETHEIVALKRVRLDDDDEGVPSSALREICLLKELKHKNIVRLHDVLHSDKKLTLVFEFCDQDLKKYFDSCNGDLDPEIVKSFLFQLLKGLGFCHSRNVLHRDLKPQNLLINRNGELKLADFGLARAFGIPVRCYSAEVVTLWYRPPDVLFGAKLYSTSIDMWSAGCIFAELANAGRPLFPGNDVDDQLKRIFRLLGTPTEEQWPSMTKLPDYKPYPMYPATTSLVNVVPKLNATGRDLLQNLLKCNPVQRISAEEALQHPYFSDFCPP
T3 sequence (Q15078 whole entry partner): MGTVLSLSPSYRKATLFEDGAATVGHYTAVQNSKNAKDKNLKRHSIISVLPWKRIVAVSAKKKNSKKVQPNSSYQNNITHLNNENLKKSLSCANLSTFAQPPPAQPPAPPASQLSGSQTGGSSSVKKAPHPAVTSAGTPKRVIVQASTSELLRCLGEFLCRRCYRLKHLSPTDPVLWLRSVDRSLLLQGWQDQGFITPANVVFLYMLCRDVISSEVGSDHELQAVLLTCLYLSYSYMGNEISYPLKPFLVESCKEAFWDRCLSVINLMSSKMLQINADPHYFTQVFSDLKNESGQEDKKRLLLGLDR
T1 sequence (P49841 whole entry): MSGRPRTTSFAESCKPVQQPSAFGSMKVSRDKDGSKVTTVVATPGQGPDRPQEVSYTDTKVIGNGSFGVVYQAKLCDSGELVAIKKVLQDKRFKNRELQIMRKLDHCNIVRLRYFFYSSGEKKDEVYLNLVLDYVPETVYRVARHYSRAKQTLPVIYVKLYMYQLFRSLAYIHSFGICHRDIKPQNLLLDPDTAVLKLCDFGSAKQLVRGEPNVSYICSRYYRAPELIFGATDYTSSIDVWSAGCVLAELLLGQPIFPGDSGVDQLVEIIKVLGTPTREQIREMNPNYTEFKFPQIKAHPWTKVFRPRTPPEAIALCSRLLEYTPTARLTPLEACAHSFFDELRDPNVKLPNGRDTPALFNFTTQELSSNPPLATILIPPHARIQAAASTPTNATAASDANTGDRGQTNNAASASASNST
T2 sequence (P49674 whole entry): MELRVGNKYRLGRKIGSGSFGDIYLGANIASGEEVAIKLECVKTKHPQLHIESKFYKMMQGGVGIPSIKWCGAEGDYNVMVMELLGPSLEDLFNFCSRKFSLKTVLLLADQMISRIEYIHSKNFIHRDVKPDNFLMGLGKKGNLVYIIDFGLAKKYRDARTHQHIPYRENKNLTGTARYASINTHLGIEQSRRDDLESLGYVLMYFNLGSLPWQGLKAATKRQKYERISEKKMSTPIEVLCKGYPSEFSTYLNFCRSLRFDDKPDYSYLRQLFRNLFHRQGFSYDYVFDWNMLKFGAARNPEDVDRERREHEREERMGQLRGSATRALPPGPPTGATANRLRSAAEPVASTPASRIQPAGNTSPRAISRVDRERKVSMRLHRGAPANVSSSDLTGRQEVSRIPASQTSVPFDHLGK

Structure (SMILES) | EC50 (Human recombinant GSK-3β; read-out: GSK3β inhibition pEC50 average (converted)) | EC50 (Human recombinant CK1ε; read-out: CK1 inhibition pEC50 average (converted)) | EC50 ([1]; read-out: Cdk5 inhibition pEC50 average (converted)) | GSK3β inhibition pEC50 average (Human recombinant GSK-3β) | CK1 inhibition pEC50 average (Human recombinant CK1ε) | Cdk5 inhibition pEC50 average [1] | EC50 [2]
Cc1cc(-c2c(O)[nH]c3ccccc23)nc(N)n1 [Comparative example, reference compound] | 398 nM | 3160 nM | 501 nM |  |  |  | 
Nc1nccc(-c2c(O)[nH]c3ccccc23)n1 [Compound 1, 3-(2-Amino-4-pyrimidinyl)-2-oxoindole] |  |  |  | 6.9 | 6.1 | 8.2 | 
CS(=O)(=O)c1ccc2c(-c3ccnc(N)n3)c(O)[nH]c2c1 [Compound 2, 3-(2-Amino-4-pyrimidinyl) -6-methanesulfonyl-2-oxoindole] |  |  |  | 5.3 | 5.4 | 6.7 | 
Nc1nccc(-c2c(O)[nH]c3ccc(Br)cc23)n1 [Compound 3, 3-(2-Amino-4-pyrimidinyl)-5-Bromo-2-oxoindole] |  |  |  | 7.8 | 6.1 | 8.3 | 
Nc1nccc(-c2c(O)[nH]c3ccc(F)cc23)n1 [Compound 4, 3-(2-Amino-4-pyrimidinyl) -5-Fluoro-2-oxoindole] |  |  |  | 7.5 | 6.5 | 7.5 | 1260 nM
Nc1nccc(-c2c(O)[nH]c3ccc(Cl)cc23)n1 [Compound 5, 3-(2-Amino-4-pyrimidinyl) -5-Chloro-2-oxoindole] |  |  |  | 7.9 | 6.7 | 8.8 | 316 nM
Nc1nccc(-c2c(O)[nH]c3ccc([N+](=O)[O-])cc23)n1 [Compound 6, 3-(2-Amino-4-pyrimidinyl) -5-Nitro-2-oxoindole] |  |  |  | 6.7 | 4.7 | 6.9 | 10000 nM
COC(=O)c1ccc2c(-c3ccnc(N)n3)c(O)[nH]c2c1 [Compound 7, 3-(2-Amino-4-pyrimidinyl) -2-oxoindole-6-carboxylic acid methyl ester] |  |  |  | 6.6 | 5.9 | 6.8 | 
Nc1nccc(-c2c(O)[nH]c3ccc(F)c(F)c23)n1 [Compound 8, 3-(2-Amino-4-pyrimidinyl)-4,5-difluoro-2-oxoindol] |  |  |  | 7.6 | < 4 | 7.6 | 
